Assay results: US12065436B2, “Cardiac sarcomere inhibitors” (Cytokinetics, Inc., priority 2018, dated 2024)
One block for each molecule: values may come before it.

Molecular target: bovine cardiac myofibrils (full-length cardiac myosin ATPase in the native sarcomere) (Bos taurus (Bovine), UniProt Q9BE39)
Experiment: Skinned bovine cardiac myofibril ATPase assay (PK/LDH-coupled)
Format: biochemical
Settings: Ca2+ activating to 75% of maximal rate; for CDMF75 IC15: concentration giving 15% inhibition; for IC50: read-out: CDMF75 IC50
Summary of the method: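 Triton-skinned bovine left-ventricle myofibrils (1 mg/mL) in PM 12 buffer (12 mM PIPES, 2 mM MgCl2, pH 6.8) with 50 μM ATP, 0.6 mM EGTA and CaCl2 set for 50% or 75% activation. Steady-state ATPase inhibition followed by PK/LDH-coupled NADH oxidation at 340 nm.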

Sequence of bovine cardiac myofibrils (full-length cardiac myosin ATPase in the native sarcomere) (Q9BE39 whole entry): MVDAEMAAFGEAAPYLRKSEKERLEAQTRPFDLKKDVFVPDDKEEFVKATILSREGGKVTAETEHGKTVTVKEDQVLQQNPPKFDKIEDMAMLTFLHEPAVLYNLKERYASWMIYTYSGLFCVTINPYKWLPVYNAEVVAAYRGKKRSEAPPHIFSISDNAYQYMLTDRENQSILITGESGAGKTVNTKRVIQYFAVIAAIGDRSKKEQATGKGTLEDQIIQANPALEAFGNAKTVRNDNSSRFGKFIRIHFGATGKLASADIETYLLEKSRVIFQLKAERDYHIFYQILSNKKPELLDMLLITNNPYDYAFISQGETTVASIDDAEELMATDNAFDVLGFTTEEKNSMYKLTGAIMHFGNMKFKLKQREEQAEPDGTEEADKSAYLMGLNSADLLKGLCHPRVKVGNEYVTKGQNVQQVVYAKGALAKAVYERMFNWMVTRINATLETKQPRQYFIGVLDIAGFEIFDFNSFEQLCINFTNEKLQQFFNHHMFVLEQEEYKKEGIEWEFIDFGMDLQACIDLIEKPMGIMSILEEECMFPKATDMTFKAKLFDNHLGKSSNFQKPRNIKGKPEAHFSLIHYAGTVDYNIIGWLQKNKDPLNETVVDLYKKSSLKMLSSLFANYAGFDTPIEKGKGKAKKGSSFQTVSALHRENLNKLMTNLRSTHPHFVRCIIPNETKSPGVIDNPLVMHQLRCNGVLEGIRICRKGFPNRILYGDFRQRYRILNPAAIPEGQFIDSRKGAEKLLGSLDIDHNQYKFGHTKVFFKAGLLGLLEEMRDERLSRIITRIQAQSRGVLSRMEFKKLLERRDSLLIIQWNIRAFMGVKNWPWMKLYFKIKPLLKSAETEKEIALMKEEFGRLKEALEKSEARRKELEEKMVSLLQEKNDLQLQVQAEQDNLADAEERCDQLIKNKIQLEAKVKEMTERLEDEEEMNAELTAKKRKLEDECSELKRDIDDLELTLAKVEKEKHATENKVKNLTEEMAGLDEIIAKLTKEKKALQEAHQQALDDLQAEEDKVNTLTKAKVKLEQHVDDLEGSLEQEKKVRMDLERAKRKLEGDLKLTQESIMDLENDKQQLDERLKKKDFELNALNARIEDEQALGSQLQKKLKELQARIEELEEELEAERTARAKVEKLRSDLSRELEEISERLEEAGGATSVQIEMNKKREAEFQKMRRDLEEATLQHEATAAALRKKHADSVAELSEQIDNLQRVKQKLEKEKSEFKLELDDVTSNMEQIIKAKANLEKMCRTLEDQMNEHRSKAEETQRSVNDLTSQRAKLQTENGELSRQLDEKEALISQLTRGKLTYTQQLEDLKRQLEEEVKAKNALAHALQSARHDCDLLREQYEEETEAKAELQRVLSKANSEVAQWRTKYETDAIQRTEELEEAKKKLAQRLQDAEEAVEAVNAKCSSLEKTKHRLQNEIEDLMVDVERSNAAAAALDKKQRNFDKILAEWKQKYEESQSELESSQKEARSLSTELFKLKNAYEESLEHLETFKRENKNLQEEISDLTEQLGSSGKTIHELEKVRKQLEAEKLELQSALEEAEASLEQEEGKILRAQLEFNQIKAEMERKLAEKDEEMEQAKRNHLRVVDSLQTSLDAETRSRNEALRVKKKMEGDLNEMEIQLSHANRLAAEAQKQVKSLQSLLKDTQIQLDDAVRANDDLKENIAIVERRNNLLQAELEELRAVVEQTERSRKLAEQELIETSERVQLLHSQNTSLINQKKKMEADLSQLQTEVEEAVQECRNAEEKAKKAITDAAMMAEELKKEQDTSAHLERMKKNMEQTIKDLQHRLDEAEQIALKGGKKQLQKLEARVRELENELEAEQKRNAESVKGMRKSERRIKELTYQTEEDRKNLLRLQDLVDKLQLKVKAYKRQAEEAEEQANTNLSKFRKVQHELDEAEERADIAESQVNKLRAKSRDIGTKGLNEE
Sequence of bovine cardiac myofibrils (full-length cardiac myosin ATPase in the native sarcomere) (P85100 whole entry partner): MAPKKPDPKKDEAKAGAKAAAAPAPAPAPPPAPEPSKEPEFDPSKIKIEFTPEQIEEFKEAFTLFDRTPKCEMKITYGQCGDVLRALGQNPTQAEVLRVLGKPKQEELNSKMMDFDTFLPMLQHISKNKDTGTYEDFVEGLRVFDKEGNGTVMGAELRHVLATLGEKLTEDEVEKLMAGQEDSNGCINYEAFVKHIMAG
Sequence of bovine cardiac myofibrils (full-length cardiac myosin ATPase in the native sarcomere) (Q3SZE5 whole entry partner): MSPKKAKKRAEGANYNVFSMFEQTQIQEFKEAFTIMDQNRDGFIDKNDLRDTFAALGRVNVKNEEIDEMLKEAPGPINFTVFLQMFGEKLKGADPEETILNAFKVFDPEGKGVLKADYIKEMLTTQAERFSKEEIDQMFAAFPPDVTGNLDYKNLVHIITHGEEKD

CDMF75 IC15: 1.9 µM
IC50: 7.9 µM
Structure (SMILES): COCCn1cc(C(=O)N[C@@H]2CCc3cc(-c4noc(C5CC5)n4)ccc32)cn1 [Compound 510, (R)-N-(5-(5-cyclopropyl-1,2,4-oxadiazol-3-yl)-2,3-dihydro-1H-inden-1-yl)-1-(2-methoxyethyl)-1H-pyrazole-4-carboxamide]

CDMF75 IC15: 3.0 µM
IC50: 14 µM
Structure (SMILES): COCCn1cc(C(=O)N[C@@H]2CCc3cc(-c4noc(C(C)C)n4)ccc32)cn1 [Compound 511, (R)-N-(5-(5-isopropyl-1,2,4-oxadiazol-3-yl)-2,3-dihydro-1H-inden-1-yl)-1-(2-methoxyethyl)-1H-pyrazole-4-carboxamide]

CDMF75 IC15: 4.5 µM
IC50: 18.2 µM
Structure (SMILES): COCCn1cc(C(=O)N[C@@H]2CCc3cc(-c4noc(COC)n4)ccc32)cn1 [Compound 512, (R)-1-(2-methoxyethyl)-N-(5-(5-(methoxymethyl)-1,2,4-oxadiazol-3-yl)-2,3-dihydro-1H-inden-1-yl)-1H-pyrazole-4-carboxamide]

CDMF75 IC15: 2.2 µM
IC50: 10.9 µM
Structure (SMILES): COCCn1cc(C(=O)N[C@@H]2CCc3cc(-c4noc(C5CCC5)n4)ccc32)cn1 [Compound 513, (R)-N-(5-(5-cyclobutyl-1,2,4-oxadiazol-3-yl)-2,3-dihydro-1H-inden-1-yl)-1-(2-methoxyethyl)-1H-pyrazole-4-carboxamide]

CDMF75 IC15: 2.7 µM
IC50: 11 µM
Structure (SMILES): [2H]C([2H])([2H])c1nc(-c2ccc3c(c2)CC[C@H]3NC(=O)c2cnn(CCOC)c2)no1 [Compound 514, (R)-1-(2-methoxyethyl)-N-(5-(5-(methyl-d3)-1,2,4-oxadiazol-3-yl)-2,3-dihydro-1H-inden-1-yl)-1H-pyrazole-4-carboxamide]

CDMF75 IC15: 4.3 µM
IC50: 19.5 µM
Structure (SMILES): CCc1nc(-c2ccc3c(c2)CCCC3NC(=O)c2cnn(C)c2)no1 (stereo not shown) [Compound 515, N-(6-(5-ethyl-1,2,4-oxadiazol-3-yl)-1,2,3,4-tetrahydronaphthalen-1-yl)-1-methyl-1H-pyrazole-4-carboxamide]

CDMF75 IC15: 39.2 µM
IC50: 39.2 µM
Structure (SMILES): CCc1nc(-c2ccc3c(c2)CCC[C@@H]3NC(=O)c2cnn(C)c2)no1 [Compound 516, (S)-N-(6-(5-ethyl-1,2,4-oxadiazol-3-yl)-1,2,3,4-tetrahydronaphthalen-1-yl)-1-methyl-1H-pyrazole-4-carboxamide]

CDMF75 IC15: 2.2 µM
IC50: 9.7 µM
Structure (SMILES): CCc1nc(-c2ccc3c(c2)CCC[C@H]3NC(=O)c2cnn(C)c2)no1 [Compound 517, (R)—N-(6-(5-ethyl-1,2,4-oxadiazol-3-yl)-1,2,3,4-tetrahydronaphthalen-1-yl)-1-methyl-1H-pyrazole-4-carboxamide]

CDMF75 IC15: 27.8 µM
IC50: 39.2 µM
Structure (SMILES): CC(CO)c1nc(-c2ccc3c(c2)CC[C@H]3NC(=O)c2nnn(C)n2)no1 (stereo partly drawn) [Compound 518, N-((1R)-5-(5-(1-hydroxypropan-2-yl)-1,2,4-oxadiazol-3-yl)-2,3-dihydro-1H-inden-1-yl)-2-methyl-2H-tetrazole-5-carboxamide]

CDMF75 IC15: 1.9 µM
IC50: 8.7 µM
Structure (SMILES): [2H]C([2H])([2H])c1nc(-c2ccc3c(c2)CC[C@H]3NC(=O)c2cnn(CCO)c2)no1 [Compound 519, (R)-1-(2-hydroxyethyl)-N-(5-(5-(methyl-d3)-1,2,4-oxadiazol-3-yl)-2,3-dihydro-1H-inden-1-yl)-1H-pyrazole-4-carboxamide]

CDMF75 IC15: 1.8 µM
IC50: 8.1 µM
Structure (SMILES): Cc1nc(-c2ccc3c(c2)CC[C@H]3NC(=O)c2cnn(CCO)c2)no1 [Compound 520, (R)-1-(2-hydroxyethyl)-N-(5-(5-methyl-1,2,4-oxadiazol-3-yl)-2,3-dihydro-1H-inden-1-yl)-1H-pyrazole-4-carboxamide]

CDMF75 IC15: 1.2 µM
IC50: 5 µM
Structure (SMILES): O=C(N[C@@H]1CCc2cc(-c3noc(C4CC4)n3)ccc21)c1cnn(CCO)c1 [Compound 521, (R)-N-(5-(5-cyclopropyl-1,2,4-oxadiazol-3-yl)-2,3-dihydro-1H-inden-1-yl)-1-(2-hydroxyethyl)-1H-pyrazole-4-carboxamide]

CDMF75 IC15: 2.0 µM
IC50: 9.1 µM
Structure (SMILES): CC(C)c1nc(-c2ccc3c(c2)CC[C@H]3NC(=O)c2cnn(CCO)c2)no1 [Compound 522, (R)-1-(2-hydroxyethyl)-N-(5-(5-isopropyl-1,2,4-oxadiazol-3-yl)-2,3-dihydro-1H-inden-1-yl)-1H-pyrazole-4-carboxamide]

CDMF75 IC15: 2.9 µM
IC50: 13.3 µM
Structure (SMILES): COCc1nc(-c2ccc3c(c2)CC[C@H]3NC(=O)c2cnn(CCO)c2)no1 [Compound 523, (R)-1-(2-hydroxyethyl)-N-(5-(5-(methoxymethyl)-1,2,4-oxadiazol-3-yl)-2,3-dihydro-1H-inden-1-yl)-1H-pyrazole-4-carboxamide]

CDMF75 IC15: 1.7 µM
IC50: 7.3 µM
Structure (SMILES): O=C(N[C@@H]1CCc2cc(-c3noc(C4CCC4)n3)ccc21)c1cnn(CCO)c1 [Compound 524, (R)-N-(5-(5-cyclobutyl-1,2,4-oxadiazol-3-yl)-2,3-dihydro-1H-inden-1-yl)-1-(2-hydroxyethyl)-1H-pyrazole-4-carboxamide]

CDMF75 IC15: 0.7 µM
IC50: 2.5 µM
Structure (SMILES): CCc1nc(-c2ccc3c(c2)CCCC3NC(=O)c2ccnn2C)no1 (stereo not shown) [Compound 525, N-(6-(5-ethyl-1,2,4-oxadiazol-3-yl)-1,2,3,4-tetrahydronaphthalen-1-yl)-1-methyl-1H-pyrazole-5-carboxamide]

The next lines start with the molecule.

Structure (SMILES): C[C@H](CO)c1nc(-c2ccc3c(c2)CC[C@H]3NC(=O)c2ccnn2C)no1 [Compound 497, N-((R)-5-(5-((R)-1-hydroxypropan-2-yl)-1,2,4-oxadiazol-3-yl)-2,3-dihydro-1H-inden-1-yl)-1-methyl-1H-pyrazole-5-carboxamide]
CDMF75 IC15: 7.4 µM
IC50: 39.2 µM

Structure (SMILES): C[C@@H](CO)c1nc(-c2ccc3c(c2)CC[C@H]3NC(=O)c2ccnn2C)no1 [Compound 498, N-((R)-5-(5-((S)-1-hydroxypropan-2-yl)-1,2,4-oxadiazol-3-yl)-2,3-dihydro-1H-inden-1-yl)-1-methyl-1H-pyrazole-5-carboxamide]
CDMF75 IC15: 7.9 µM
IC50: 34.7 µM

Structure (SMILES): CC(C)c1nc(-c2ccc3c(c2)CC[C@H]3NC(=O)c2nn[nH]n2)no1 [Compound 499, (R)-N-(5-(5-isopropyl-1,2,4-oxadiazol-3-yl)-2,3-dihydro-1H-inden-1-yl)-2H-tetrazole-5-carboxamide]
CDMF75 IC15: 2.4 µM
IC50: 39.2 µM

Structure (SMILES): CC(C)c1nc(-c2ccc3c(c2)CC[C@H]3NC(=O)c2nnn(Cc3ccccc3)n2)no1 [Compound 500, (R)-2-benzyl-N-(5-(5-isopropyl-1,2,4-oxadiazol-3-yl)-2,3-dihydro-1H-inden-1-yl)-2H-tetrazole-5-carboxamide]
CDMF75 IC15: 1.0 µM
IC50: 6.5 µM

Structure (SMILES): CCc1nc(-c2ccc3c(c2)CC[C@H]3NC(=O)c2nnn(Cc3ccccc3)n2)no1 [Compound 501, (R)-2-benzyl-N-(5-(5-ethyl-1,2,4-oxadiazol-3-yl)-2,3-dihydro-1H-inden-1-yl)-2H-tetrazole-5-carboxamide]
CDMF75 IC15: 0.3 µM
IC50: 1.1 µM

Structure (SMILES): CCc1nc(-c2ccc3c(c2)CC[C@H]3NC(=O)c2nn[nH]n2)no1 [Compound 502, (R)-N-(5-(5-ethyl-1,2,4-oxadiazol-3-yl)-2,3-dihydro-1H-inden-1-yl)-2H-tetrazole-5-carboxamide]
CDMF75 IC15: 2.0 µM
IC50: 8 µM

Structure (SMILES): O=C(N[C@@H]1CCc2cc(-c3noc(C4CCC4)n3)ccc21)c1nnn(Cc2ccccc2)n1 [Compound 503, (R)-2-benzyl-N-(5-(5-cyclobutyl-1,2,4-oxadiazol-3-yl)-2,3-dihydro-1H-inden-1-yl)-2H-tetrazole-5-carboxamide]
CDMF75 IC15: 0.8 µM
IC50: 3.4 µM

Structure (SMILES): CCOC(=O)C(C)c1nc(-c2ccc3c(c2)CC[C@H]3NC(=O)c2nnn(C)n2)no1 (stereo partly drawn) [Compound 504, ethyl 2-(3-((R)-1-(2-methyl-2H-tetrazole-5-carboxamido)-2,3-dihydro-1H-inden-5-yl)-1,2,4-oxadiazol-5-yl)propanoate]
CDMF75 IC15: 4.4 µM
IC50: 16.6 µM

Structure (SMILES): O=C(N[C@@H]1CCc2cc(-c3noc(C4CCC4)n3)ccc21)c1nn[nH]n1 [Compound 505, (R)-N-(5-(5-cyclobutyl-1,2,4-oxadiazol-3-yl)-2,3-dihydro-1H-inden-1-yl)-2H-tetrazole-5-carboxamide]
CDMF75 IC15: 6.5 µM
IC50: 29.2 µM

Structure (SMILES): CCc1nc(-c2ccc3c(c2)CC[C@H]3NC(=O)c2cnn(CC3COC3)c2)no1 [Compound 506, (R)-N-(5-(5-ethyl-1,2,4-oxadiazol-3-yl)-2,3-dihydro-1H-inden-1-yl)-1-(oxetan-3-ylmethyl)-1H-pyrazole-4-carboxamide]
CDMF75 IC15: 4.5 µM
IC50: 20 µM

Structure (SMILES): CCc1nc(-c2ccc3c(c2)CC[C@H]3NC(=O)c2cnn(CC3(C)COC3)c2)no1 [Compound 507, (R)-N-(5-(5-ethyl-1,2,4-oxadiazol-3-yl)-2,3-dihydro-1H-inden-1-yl)-1-((3-methyloxetan-3-yl)methyl)-1H-pyrazole-4-carboxamide]
CDMF75 IC15: 32.6 µM
IC50: 39.2 µM

Structure (SMILES): CCc1nc(-c2ccc3c(c2)CC[C@H]3NC(=O)c2cnn(CC3(F)COC3)c2)no1 [Compound 508, (R)-N-(5-(5-ethyl-1,2,4-oxadiazol-3-yl)-2,3-dihydro-1H-inden-1-yl)-1-((3-fluorooxetan-3-yl)methyl)-1H-pyrazole-4-carboxamide]
CDMF75 IC15: 2.6 µM
IC50: 11.3 µM

Structure (SMILES): COCCn1cc(C(=O)N[C@@H]2CCc3cc(-c4noc(C)n4)ccc32)cn1 [Compound 509, (R)-1-(2-methoxyethyl)-N-(5-(5-methyl-1,2,4-oxadiazol-3-yl)-2,3-dihydro-1H-inden-1-yl)-1H-pyrazole-4-carboxamide]
CDMF75 IC15: 3.2 µM
IC50: 12.8 µM
